We go through eleven molecules from patent US5527697A, “7-amino-3-methoxymethyl-3-cephem-4-carboxylic ester hydrolase, process for its preparation, and its use” (Hoechst Aktiengesellschaft, priority 1992, dated 1996).

Where a name gives a salt, the structure may show the parent alone.

For assay [1], the system named is esterase according to the invention (MACA-ester hydrolase). Nature of the assay: substrate specificity of the esterase according to the invention. Type of assay: biochemical. The source says: Following partial purification, the enzyme can be bound without difficulty, for example to the enzyme carrier VA-Epoxy-Biosynth®. The activity is normally determined by conversion of MACA-ester to MACA. HPLC or TLC is then employed for the quantitative evaluation of the amount of MACA that is formed.
The following table contains further information concerning the substrate specificity of the esterase according to the invention: […]

The subject of assay [2] is immobilized enzyme (MACA-ester hydrolase). Briefly: cleavage of MACA ester (R) with immobilized esterase. Type of assay: biochemical, Nocardia sp. ATCC 53492. The conditions noted are these: within 6-8 hours; pH 6.8, 30° C.; 5 g substrate, 100 g moist immobilized enzyme. On the procedure:
2.5 g of R-ester hydrochloride are dissolved in 800 ml of 50 mM potassium phosphate solution, pH=6.8. 100 g of moist, immobilized enzyme are then added with stirring. The pH is kept at 6.8 and the temperature at 30° C. Further 1.25 g amounts of substrate are added after 2.5 h and after 41/4 h. In all, the mixture contains 5 g of MACA ester (R). The cleavage proceeds within the space of 6-8 hours to 95% conversion according to HPLC. The cleavage solution is separated from the enzyme and lyophilized. About 10 g of a white solid are obtained.

Where [3] appears, read: substrate concentration 100 mM, relative to MACA ester pro J = 100.
Where [4] appears, read: substrate concentration 2.5 mM, MACA ester pro J = 100.
The mark [5] stands for this setting: substrate concentration 1.59 mM, HEPES, pH 6.95.
The mark [6] stands for this setting: substrate concentration 2.5 mM, phosphate buffer, pH 6.8.

Regarding `CCOC(=O)CC` [Ethyl propionate], in assay [1] (substrate concentration 100 mM), the “Activity U/mg” value is given as 50 U/mg and the “Activity U/ml” value came out at 20 U/ml. The molecule also came in with an Activity % in assay [1] (setting [3]) of 56.8%.

For the molecule `CCOC(=O)C(C)Cl` (stereo not shown) [Ethyl 2-chloro-propionate, ethyl 2-chloropropionate], in assay [1] (substrate concentration 100 mM), the “Activity U/mg” value is given as 75 U/mg and the “Activity U/ml” value is recorded as 30 U/ml. In assay [1] (setting [3]), the Activity % is listed as 85.2%.

Consider `CC(=O)OCC(COC(C)=O)OC(C)=O` [Triacetin], for which, in assay [1] (substrate concentration 100 mM), the “Activity U/mg” value came out at 92.75 U/mg and the “Activity U/ml” value was found to be 37.1 U/ml. The molecule also gave an Activity % in assay [1] (setting [3]) of 105.4%.

Regarding `COCC1=C(C(=O)O[C@H](C)OC(=O)C(C)(C)C)N2C(=O)C(N)[C@@H]2SC1` (stereo partly drawn) [MACA ester pro K, (1R,S)-1-(2,2-dimethylpropionyloxy)-ethyl 7-amino-3-methoxymethyl-3-cephem-4-carboxylate], in assay [1] (substrate concentration 2.5 mM), the “Activity U/mg” value came out at 87.75 U/mg and the “Activity U/ml” value is 35.1 U/ml. This molecule returned an Activity % in assay [1] (setting [4]) of 99.7%.

Take `CCOC(=O)C(C)N` (racemic) [D,L-alanine ethyl ester]: in assay [1] (substrate concentration 100 mM), the “Activity U/mg” value is 40 U/mg and the “Activity U/ml” value is 16 U/ml. Also, in assay [1] (setting [3]), the Activity % came out at 45.5%.

As for `COCC1=C(C(=O)O[C@H](C)OC(=O)C(C)(C)C)N2C(=O)C(N)[C@@H]2SC1` (stereo partly drawn) [MACA ester pro J, (1R,S)-1-(2,2-dimethylpropionyloxy)-ethyl 7-amino-3-methoxymethyl-3-cephem-4-carboxylate], in assay [1] (substrate concentration 2.5 mM), the “Activity U/mg” value is 87.75 U/mg and the “Activity U/ml” value worked out at 35.2 U/ml. In assay [1] (setting [4]), this molecule displayed an Activity % of 100%.

Consider `CC(OC(=O)C(C)(C)C)OC(=O)C(C)(C)C`, for which, in assay [1] (substrate concentration 50 mM), the “Activity U/mg” value came to 3.5 U/mg and the “Activity U/ml” value amounted to 1.4 U/ml. For the same molecule, the Activity % in assay [1] (substrate concentration 50 mM, relative to MACA ester pro J = 100) came out at 4%.

As to `COCC1=C(C(=O)O[C@H](C)OC(=O)C(C)(C)C)N2C(=O)[C@@H](N)[C@H]2SC1` [R-ester hydrochloride], in assay [2], the “conversion according to HPLC” value stood at 95%.

On to `CCOC(=O)C(C)(C)C` [Ethyl pivalate], for which, in assay [1] (substrate concentration 100 mM), the “Activity U/mg” value came to 42.75 U/mg and the “Activity U/ml” value amounted to 17.1 U/ml. Besides, the Activity % in assay [1] (setting [3]) turned out to be 48.6%.

As to `CCCC(=O)OCC(COC(=O)CCC)OC(=O)CCC` [Tributyrin], in assay [1] (substrate concentration 100 mM), the “Activity U/mg” value was 93.75 U/mg and the “Activity U/ml” value worked out at 37.5 U/ml. In assay [1] (setting [3]), the Activity % came to 106.5%.

With `CC(=O)Oc1ccc([N+](=O)[O-])cc1` [p-Nitrophenyl acetate, p-nitrophenyl acetate], the “Activity U/mg” value in assay [1] (setting [5]) was found to be 76.0 U/mg; in assay [1] (setting [6]) it was 108.75 U/mg. Moreover, the “Activity U/ml” value in assay [1] (setting [5]) stood at 30.4 U/ml; in assay [1] (setting [6]), 43.5 U/ml. Also, the Activity % in assay [1] (substrate concentration 1.59 mM, HEPES, pH 6.95, relative to MACA ester pro J = 100) is given as 86.4%; in assay [1] (substrate concentration 2.5 mM, phosphate buffer, pH 6.8, relative to MACA ester pro J = 100) it was 123.6%.
